Laboratory results as given in patent US10201531B2, “Indazolyl-oxo-isothiazole compounds” (MOCHIDA PHARMACEUTICAL CO., LTD., priority 2015, dated 2019).

Tested on: Nrf2
Experiment: Evaluation of Nrf2 activation ability (Nrf2d-LacZ / Keap1 HEK293 reporter, Beta-Glo luminescence)
Assay type: cell-based, human
Experimental: HEK293 cells constantly expressing Nrf2d-LacZ (human Nrf2 degron region fused to LacZ; Hirotsu et al, Genes to Cell, Vol. 16, pp. 406-415 (2011)) and human Keap1 were seeded 7,000 cells/27 μl/well on 384-well plates (Corning 384 Well Flat Clear Bottom White Polystyrene TC-Treated Microplates, Cat. #3707), and cultured overnight at 5% CO2, 37° C. in DMEM medium containing 10% FBS, 100 U/mL penicillin and 100 μg/mL streptomycin. 3 μL/well of a 0.1% DMSO solution of the compound of the invention was added to the cells, which were then cultured for 3 hours at 5% CO2, 37° C. Beta-Glo® reagent (Promega, Beta-Glo Assay System, Cat. #E4740) was added 15 μL/well and incubated for 1 hour at room temperature, and luminescence intensity was measured with a luminometer. Using CDDO-Im as a standard, Nrf2 activation ability was calculated given 100% as the luminescence under stimulus with 100 nM CDDO-Im.

[1] = rated A/B/C, Pharmacological Test Example 1
[2] = Pharmacological Test Example 1, rated A/B/C

SMILES	EC50 [1]	EC50 [2]
CN1CCOc2cc(-c3cc4cnn(-c5cc(O)n[s+]5[O-])c4cn3)cnc21 (single isomer, unassigned) [Example 243]	< 1000 nM	
[O-][s+]1nc(O)cc1-n1cc2c(n1)CN(Cc1ccccc1)C2 (single isomer, unassigned) [Example 255]	1000 to 5000 nM	
[O-][s+]1nc(O)cc1-n1cc2c(n1)CCN(Cc1ccccc1)C2 (single isomer, unassigned) [Example 256]	1000 to 5000 nM	
[O-][s+]1nc(O)cc1-n1ncc2c1CCN(CC1CCCCC1)C2 (single isomer, unassigned) [Example 257]	1000 to 5000 nM	
[O-][s+]1nc(O)cc1-n1ncc2c1CN(CC1CCCCC1)C2 (single isomer, unassigned) [Example 273]	< 1000 nM	
[O-][s+]1nc(O)cc1-n1cc2c(n1)CN(CC1CCCCC1)C2 (single isomer, unassigned) [Example 275]	1000 to 5000 nM	
CC(C)(C)OC(=O)N1CC=C(c2ccc(-c3cnn(-c4cc(O)n[s+]4[O-])c3)cn2)CC1 (single isomer, unassigned) [Example 449]		1000 to 5000 nM
CN1CCOc2cc(-c3cnn(-c4cc(O)n[s+]4[O-])c3)cnc21 (single isomer, unassigned) [Example 450]		< 1000 nM
COc1nc(-c2ccc(N3CCCC3)nc2)ccc1-c1cnn(-c2cc(O)n[s+]2[O-])c1 (single isomer, unassigned) [Example 453]		< 1000 nM
[O-][s+]1nc(O)cc1-n1ncc2ccccc21 (stereo not shown) [Example 1, 5-(indazol-1-yl)-1-oxo-1,2-thiazol-3-ol]	1000 to 5000 nM	
[O-][s+]1nc(O)cc1-n1ncc2cc(Br)ccc21 (stereo not shown) [Example 2, 5-(5-bromoindazol-1-yl)-1-oxo-1,2-thiazol-3-ol]	< 1000 nM	
COc1cc(-c2ccc3c(cnn3-c3cc(O)n[s+]3[O-])c2)ccn1 (stereo not shown) [Example 3, 5-[5-(2-methoxypyridin-4-yl)indazol-1-yl]-1-oxo-1,2-thiazol-3-ol]	< 1000 nM	
CN1CCOc2cc(-c3ccc4c(cnn4-c4cc(O)n[s+]4[O-])c3)cnc21 (stereo not shown) [Example 5, 5-[5-(4-methyl-2,3-dihydropyrido[3,2-b][1, 4]oxazin-7-yl)indazol-1-yl]-1-oxo-1,2-thiazol-3-ol]	< 1000 nM	
COc1ccc(-c2ccc3c(cnn3-c3cc(O)n[s+]3[O-])c2)c(C)n1 (stereo not shown) [Example 6]	1000 to 5000 nM	
[O-][s+]1nc(O)cc1-n1ncc2ccc(Br)cc21 (stereo not shown) [Example 7]	1000 to 5000 nM	
CC(C)N1CCOc2cc(-c3ccc4c(cnn4-c4cc(O)n[s+]4[O-])c3)cnc21 (stereo not shown) [Example 8]	< 1000 nM	
COc1cc(Br)c2cnn(-c3cc(O)n[s+]3[O-])c2c1 (stereo not shown) [Example 9]	1000 to 5000 nM	
CC1COc2cc(-c3ccc4c(cnn4-c4cc(O)n[s+]4[O-])c3)cnc2N1 (stereo not shown) [Example 10]	< 1000 nM	
[O-][s+]1nc(O)cc1-n1ncc2cc(F)ccc21 (stereo not shown) [Example 11]	1000 to 5000 nM	
[O-][s+]1nc(O)cc1-n1ncc2cc(Cl)ccc21 (stereo not shown) [Example 12]	< 1000 nM	
[O-][s+]1nc(O)cc1-n1ncc2cc(C(F)(F)F)ccc21 (stereo not shown) [Example 14]	< 1000 nM	
Cc1nn(-c2cc(O)n[s+]2[O-])c2ccc(Cl)cc12 (stereo not shown) [Example 15]	1000 to 5000 nM	
[O-][s+]1nc(O)cc1-n1ncc2ccccc21 (stereo not shown) [Example 16]	1000 to 5000 nM	
[O-][s+]1nc(O)cc1-n1ncc2ccccc21 (stereo not shown) [Example 17]	5000 to 10000 nM	
Cc1cc2cnn(-c3cc(O)n[s+]3[O-])c2cc1C (stereo not shown) [Example 18]	< 1000 nM	
N#Cc1ccc2c(cnn2-c2cc(O)n[s+]2[O-])c1 (stereo not shown) [Example 19]	1000 to 5000 nM	
N#Cc1nn(-c2cc(O)n[s+]2[O-])c2ccc(Cl)cc12 (stereo not shown) [Example 21]	1000 to 5000 nM	

SMILES	EC50 [1]	EC50 [2]
O=C(c1c(Cl)cccc1Cl)c1nn(-c2cc(O)n[s+]2[O-])c2ccccc12 (stereo not shown) [Example 22]	1000 to 5000 nM	
Cc1cccc2c1cnn2-c1cc(O)n[s+]1[O-] (stereo not shown) [Example 23]	1000 to 5000 nM	
COc1ccc2c(cnn2-c2cc(O)n[s+]2[O-])c1 (stereo not shown) [Example 24]	1000 to 5000 nM	
Cc1ccc2c(cnn2-c2cc(O)n[s+]2[O-])c1 (stereo not shown) [Example 25]	5000 to 10000 nM	
[O-][s+]1nc(O)cc1-n1ncc2cc(OCc3ccccc3)ccc21 (stereo not shown) [Example 26]	1000 to 5000 nM	
[O-][s+]1nc(O)cc1-n1ncc2cc(C3CC3)ccc21 (stereo not shown) [Example 27]	1000 to 5000 nM	
[O-][s+]1nc(O)cc1-n1ncc2cc(-c3ccccc3)ccc21 (stereo not shown) [Example 28]	1000 to 5000 nM	
[O-][s+]1nc(O)cc1-n1ncc2c(Cl)cccc21 (stereo not shown) [Example 29]	1000 to 5000 nM	
[O-][s+]1nc(O)cc1-n1ncc2c(OCc3ccccc3)cccc21 (stereo not shown) [Example 30]	5000 to 10000 nM	
[O-][s+]1nc(O)cc1-n1ncc2ccc(Cl)cc21 (stereo not shown) [Example 31]	1000 to 5000 nM	
Cc1ccc2cnn(-c3cc(O)n[s+]3[O-])c2c1 (stereo not shown) [Example 32]	1000 to 5000 nM	
[O-][s+]1nc(O)cc1-n1ncc2ccc(C(F)(F)F)cc21 (stereo not shown) [Example 33]	1000 to 5000 nM	
Cc1cccc2cnn(-c3cc(O)n[s+]3[O-])c12 (stereo not shown) [Example 34]	1000 to 5000 nM	
[O-][s+]1nc(O)cc1-n1ncc2cccc(Cl)c21 (stereo not shown) [Example 37]	1000 to 5000 nM	
[O-][s+]1nc(O)cc1-n1ncc2cc(-c3cccnc3)ccc21 (stereo not shown) [Example 38]	< 1000 nM	
[O-][s+]1nc(O)cc1-n1ncc2cc(C3=CCC(F)(F)CC3)ccc21 (stereo not shown) [Example 39]	< 1000 nM	
[O-][s+]1nc(O)cc1-n1ncc2cc(-c3ccccc3Cl)ccc21 (stereo not shown) [Example 40]	< 1000 nM	
[O-][s+]1nc(O)cc1-n1ncc2cc(-c3cncnc3)ccc21 (stereo not shown) [Example 41]	1000 to 5000 nM	
[O-][s+]1nc(O)cc1-n1ncc2cc(C3=CCOCC3)ccc21 (stereo not shown) [Example 42]	< 1000 nM	
[O-][s+]1nc(O)cc1-n1ncc2cc(-c3ccccn3)ccc21 (stereo not shown) [Example 43]	< 1000 nM	
CC(C)(C)OC(=O)N1CC=C(c2ccc3c(cnn3-c3cc(O)n[s+]3[O-])c2)CC1 (stereo not shown) [Example 44]	< 1000 nM	
Nc1ccc(-c2ccc3c(cnn3-c3cc(O)n[s+]3[O-])c2)cn1 (stereo not shown) [Example 45]	1000 to 5000 nM	
[O-][s+]1nc(O)cc1-n1ncc2cc(-c3ccc(C4CC4)nc3)ccc21 (stereo not shown) [Example 46]	< 1000 nM	
COc1ccncc1-c1ccc2c(cnn2-c2cc(O)n[s+]2[O-])c1 (stereo not shown) [Example 47]	1000 to 5000 nM	
Cc1cncc(-c2ccc3c(cnn3-c3cc(O)n[s+]3[O-])c2)c1 (stereo not shown) [Example 49]	< 1000 nM	
Cn1cc(-c2ccc3c(cnn3-c3cc(O)n[s+]3[O-])c2)cn1 (stereo not shown) [Example 50]	< 1000 nM	
[O-][s+]1nc(O)cc1-n1ncc2cc(-c3cn[nH]c3)ccc21 (stereo not shown) [Example 51]	5000 to 10000 nM	

SMILES	EC50 [1]	EC50 [2]
CN1CCN(c2cc(-c3ccc4c(cnn4-c4cc(O)n[s+]4[O-])c3)ccn2)CC1 (stereo not shown) [Example 52]	< 1000 nM	
CN1CCN(c2cc(-c3ccc4c(cnn4-c4cc(O)n[s+]4[O-])c3)ccn2)CC1 (stereo not shown) [Example 53]	< 1000 nM	
[O-][s+]1nc(O)cc1-n1ncc2cc(-c3cccnc3)ccc21 (stereo not shown) [Example 54]	< 1000 nM	
COc1ccc2cnn(-c3cc(O)n[s+]3[O-])c2c1 (stereo not shown) [Example 55]	< 1000 nM	
Cc1cncc(-c2ccc3c(cnn3-c3cc(O)n[s+]3[O-])c2)c1 (stereo not shown) [Example 56]	< 1000 nM	
[O-][s+]1nc(O)cc1-n1ncc2cc(-c3ccncc3)ccc21 (stereo not shown) [Example 58]	< 1000 nM	
[O-][s+]1nc(O)cc1-n1ncc2cc(-c3ccnc(N4CCOCC4)c3)ccc21 (stereo not shown) [Example 59]	< 1000 nM	
[O-][s+]1nc(O)cc1-n1ncc2cc(-c3cnc4ccoc4c3)ccc21 (stereo not shown) [Example 61]	< 1000 nM	
CC(C)(C)OC(=O)N1CCC(c2ccc3c(cnn3-c3cc(O)n[s+]3[O-])c2)CC1 (stereo not shown) [Example 62]	< 1000 nM	
O=C(NC1CC1)c1ccc(F)c(-c2ccc3c(cnn3-c3cc(O)n[s+]3[O-])c2)c1 (stereo not shown) [Example 63]	5000 to 10000 nM	
O=c1[nH]ccc2cc(-c3ccc4c(cnn4-c4cc(O)n[s+]4[O-])c3)ccc12 (stereo not shown) [Example 64]	1000 to 5000 nM	
CC(=O)NC1(c2ccc(-c3ccc4c(cnn4-c4cc(O)n[s+]4[O-])c3)cc2)CC1 (stereo not shown) [Example 65]	5000 to 10000 nM	
CC(=O)Nc1ccc(-c2ccc3c(cnn3-c3cc(O)n[s+]3[O-])c2)cc1 (stereo not shown) [Example 66]	1000 to 5000 nM	
O=C(NC1CC1)c1ccc(-c2ccc3c(cnn3-c3cc(O)n[s+]3[O-])c2)cc1 (stereo not shown) [Example 68]	1000 to 5000 nM	
COc1cc2c(cnn2-c2cc(O)n[s+]2[O-])cc1Br (stereo not shown) [Example 69]	1000 to 5000 nM	
COc1cc2c(cnn2-c2cc(O)n[s+]2[O-])cc1C1=CCN(C(=O)OC(C)(C)C)CC1 (stereo not shown) [Example 71]	1000 to 5000 nM	
COc1ncc(-c2ccc3c(cnn3-c3cc(O)n[s+]3[O-])c2)cc1Cl (stereo not shown) [Example 73]	< 1000 nM	
[O-][s+]1nc(O)cc1-n1ncc2cc(-c3ccc(Oc4ccccc4)cc3)ccc21 (stereo not shown) [Example 74]	< 1000 nM	
O=C(c1ccc(-c2ccc3c(cnn3-c3cc(O)n[s+]3[O-])c2)cc1)N1CCCC1 (stereo not shown) [Example 75]	1000 to 5000 nM	
Cn1cc2c(-c3ccc4c(cnn4-c4cc(O)n[s+]4[O-])c3)cccc2n1 (stereo not shown) [Example 76]	1000 to 5000 nM	
[O-][s+]1nc(O)cc1-n1ncc2cc(-c3cccc(CN4CCOCC4)c3)ccc21 (stereo not shown) [Example 77]	< 1000 nM	
[O-][s+]1nc(O)cc1-n1ncc2ccc(-c3ccccc3)cc21 (stereo not shown) [Example 78]	1000 to 5000 nM	
[O-][s+]1nc(O)cc1-n1ncc2c(-c3ccccc3)cccc21 (stereo not shown) [Example 79]	1000 to 5000 nM	
[O-][s+]1nc(O)cc1-n1ncc2c(-c3cncnc3)cccc21 (stereo not shown) [Example 81]	5000 to 10000 nM	
[2H]c1cccc(-c2ccc3c(cnn3-c3cc(O)n[s+]3[O-])c2)n1 (stereo not shown) [Example 82]	< 1000 nM	
